Reference: patent US6469028B1, “Synthesis and use of retinoid compounds having negative hormone and/or anatgonist activities” (Allergan, Inc., priority 1995, dated 2002)
Where two headings read alike, the source gives them in different places.

How the values were obtained:
[1] = test system: RAR-γ-VP-16; experiment: RAR-γ-VP-16 activity at the ΔMTV-TREp-Luc reporter; assay type: cell-based
From the text: We have also obtained results which support conclusions identical to those presented under Example 11 by employing RAR-γ-VP-16 and expression constructs and the ΔMTV-TREp-Luc reporter plasmid instead of the RAR-γ-VP-16 and ER-RXR-α expression constructs in combination with the ERE-tk-Luc reporter plasmid. […] Therefore, AGN 193109 repressed RAR-γ-VP-16 activity when this chimeric receptor was directly bound to a retinoic acid receptor response element instead of indirectly bound to an estrogen response element in the promoter region of the reporter plasmid. […] Instead, the critical feature embodied by an experimental system useful for identifying retinoid negative hormones involves detecting the ability of a compound to repress the activity of an RAR engineered to contain a constitutive transcription activation domain.

[2] = test system: tissue transglutaminase (TGase) gene in HL-60 cells; experiment: TGase activity in HL-60 cells; assay type: cell-based; conditions: TGase induced by RXR agonists
From the text: This same mechanism can account for the observation that AGN 193109 can repress the activity of the tissue transglutaminase (TGase) gene in HL-60 cells. A retinoid response element consisting of three canonical retinoid half sites spaced by 5 and 7 base pairs has been identified in the transcription control region of this gene. While TGase can be induced by RXR-selective agonists, it is not responsive to RAR-selective agonists. The TGase retinoid response element is bound by an RAR/RXR heterodimer (Davies et al. in Press). […] This AGN 193109 mediated repression can be accounted for by the ability of this negative hormone to sequester NCPs to the RAR component of the heterodimer, thereby repressing the activity of the associated RXR.

[3] = test system: TPA-induced Str-AP1-CAT expression; experiment: Example 13: anti-AP-1 activity, Str-AP1-CAT and pRS-hRARα in HeLa cells; assay type: cell-based; conditions: AGN 193109 alone, 10^−10 to 10^−8 M
[4] = test system: CaSki cells; experiment: Example 18: proliferation of CaSki cells; assay type: cell-based; conditions: 10^−6 M AGN 193109, no added retinoid agonist
Experimental: EGF was added to the retinoid treated cultures to give a final concentration of 20 ng/ml. […] The media was replaced with fresh media and each of the two retinoid compounds, as appropriate, every day. Cell numbers were determined using a COULTER counter as described above.

[5] = test system: patients having retinal detachment resulting from PVR; conditions: 40 mg oral AGN 193109 + 4 mg oral 13-cis retinoic acid twice daily for four weeks
[6] = molecular target: T1, RARα (Homo sapiens, UniProt P10276); experiment: [3H]-ATRA displacement assay, baculovirus expressed receptor; assay type: binding; set-up: made in house; host or cells: baculovirus expression system
T1 sequence (P10276 1-462): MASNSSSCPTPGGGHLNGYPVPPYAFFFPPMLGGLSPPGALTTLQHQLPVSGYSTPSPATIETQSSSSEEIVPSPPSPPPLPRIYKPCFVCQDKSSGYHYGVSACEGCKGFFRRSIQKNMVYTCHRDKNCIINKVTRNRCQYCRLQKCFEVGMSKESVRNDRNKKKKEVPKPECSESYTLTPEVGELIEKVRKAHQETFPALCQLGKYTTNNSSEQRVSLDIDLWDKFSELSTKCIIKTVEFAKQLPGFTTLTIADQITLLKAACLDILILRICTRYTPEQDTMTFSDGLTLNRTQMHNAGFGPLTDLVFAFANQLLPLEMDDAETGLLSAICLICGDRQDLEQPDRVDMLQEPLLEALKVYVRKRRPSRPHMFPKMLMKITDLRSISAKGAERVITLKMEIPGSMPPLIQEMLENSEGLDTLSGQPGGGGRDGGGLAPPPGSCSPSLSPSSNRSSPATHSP

[7] = molecular target: T1, RARα; experiment: Transactivation in CV-1 cells, ΔMTV-TREp-Luc reporter; assay type: cell-based; set-up: expressed in transfected cells; host or cells: green monkey CV-1 cells; conditions: 10^−9 to 10^−6 M, 18 hours
Experimental: (§1) AGN 193109 was also tested for its ability to transactivate RARs in CV-1 cells transiently cotransfected with RAR expression vectors and a retinoid responsive reporter gene construct. Receptor expression vectors pRShRAR-α (Giguere et al. Nature 330:624 (1987)), pRShRAR-β (Benbrook et al. Nature 333:669 (1988)) and pRShRAR-γ (Ishikawa et al. Mol. Endocrinol. 4:837 (1990)) were separately cotransfected with the ΔMTV-TREp-Luc reporter plasmid. Use of this luciferase reporter plasmid has been disclosed by Heyman et al. in Cell 68:397 (1992). The ΔMTV-TREp-Luc plasmid is essentially identical to the ΔMTV-TREp-CAT reporter construct described by Umesono et al. in Nature 336:262 (1988), except that the chloramphenicol acetyltransferase (CAT) reporter gene was substituted by a polynucleotide sequence encoding firefly luciferase. Transfection of green monkey CV-1 cells was carried out using the calcium phosphate coprecipitation method described in Molecular Cloning: A Laboratory Manual (Sambrook et al. eds. Cold Spring Harbor Lab Publ. 1989). CV-1 cells were plated at a density of 4×10^4/well in 12 well multiwell plates and transiently transfected with a calcium phosphate precipitate containing 0.7 μg of reporter plasmid and 0.1 μg of receptor plasmid according to standard laboratory procedures. […]

[8] = molecular target: T2, RARβ (Homo sapiens, UniProt P10826); experiment: as above; assay type: cell-based; set-up: expressed in transfected cells; host or cells: green monkey CV-1 cells; conditions: 10^−9 to 10^−6 M, 18 hours
T2 sequence (P10826 1-448 isoform P10826-2): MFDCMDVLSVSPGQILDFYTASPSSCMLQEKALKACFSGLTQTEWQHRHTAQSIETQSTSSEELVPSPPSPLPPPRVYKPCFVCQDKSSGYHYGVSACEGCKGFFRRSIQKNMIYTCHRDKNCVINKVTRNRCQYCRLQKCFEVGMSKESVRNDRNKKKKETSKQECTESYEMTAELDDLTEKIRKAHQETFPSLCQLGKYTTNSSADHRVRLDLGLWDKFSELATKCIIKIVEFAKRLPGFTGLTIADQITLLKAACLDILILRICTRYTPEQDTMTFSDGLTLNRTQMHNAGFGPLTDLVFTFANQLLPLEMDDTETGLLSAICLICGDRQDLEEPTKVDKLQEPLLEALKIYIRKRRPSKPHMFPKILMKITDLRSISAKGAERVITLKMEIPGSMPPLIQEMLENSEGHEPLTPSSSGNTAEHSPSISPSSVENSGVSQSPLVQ
Experimental: as §1

Cc1ccc(C2=CCC(C)(C)c3ccc(C#Cc4ccc(C(=O)O)cc4)cc32)cc1 [Compound 60, 4-[(5,6-dihydro-5,5-dimethyl-8-(4-methylphenyl)-2-naphthalenyl)ethynyl]benzoic acid]
RAR-γ-VP-16 activity at the ΔMTV-TREp-Luc reporter [1]: inhibited
TGase activity [2]: able to repress TGase activity induced by RXR agonists
inhibition of AP-1 mediated reporter activity [3]: did not substantially inhibit
proliferation [4]: inhibited proliferation of the CaSki cervical epithelial cell line
therapeutic outcome versus 40 mg oral 13-cis retinoic acid [5]: equal to or better than
Kd ([6]; Table 11, read-out: Kd (nM) RAR-α): 2 nM
Kd ([6]; as stated in Example 8, read-out: Kd at RAR-α): 10 nM
EC50 (nM) RAR-α [7]: No Activity
EC50 (nM) RAR-β [8]: No Activity
